Reference: EPA's CvTdb concentration-time database

How the values were obtained:
Experiment in all cases: concentration in plasma after dosing
Rat [1] = settings: dosed: 4-methylimidazole, 10 mg/kg, iv, Male, Harlan Sprague Dawley
Rat [2] = settings: dosed: 4-methylimidazole, 10 mg/kg, iv, Male, Harlan Sprague Dawley; remark: listed apart in the source
Rat [3] = settings: 0.75 h; dosed: 4-methylimidazole; 10 mg/kg; iv; Male; Harlan Sprague Dawley
Rat [4] = settings: dosed: 4-methylimidazole, 10 mg/kg, iv, Male, Harlan Sprague Dawley; remark: listed apart in the source
Rat [5] = settings: dosed: 4-methylimidazole, 10 mg/kg, iv, Male, Harlan Sprague Dawley; remark: listed apart in the source
Rat [6] = settings: dosed: 4-methylimidazole, 10 mg/kg, iv, Male, Harlan Sprague Dawley; remark: listed apart in the source
Rat [7] = settings: dosed: 4-methylimidazole, 10 mg/kg, iv, Male, Harlan Sprague Dawley; remark: listed apart in the source
Rat [8] = settings: dosed: 4-methylimidazole, 10 mg/kg, iv, Male, Harlan Sprague Dawley; remark: listed apart in the source
Rat [9] = settings: dosed: 4-methylimidazole, 10 mg/kg, iv, Male, Harlan Sprague Dawley; remark: listed apart in the source
Rat [10] = settings: dosed: 4-methylimidazole, 10 mg/kg, iv, Male, Harlan Sprague Dawley; remark: listed apart in the source
Rat [11] = settings: dosed: 4-methylimidazole, 10 mg/kg, iv, Male, Harlan Sprague Dawley; remark: listed apart in the source
Rat [12] = settings: dosed: 4-methylimidazole, 10 mg/kg, iv, Male, Harlan Sprague Dawley; remark: listed apart in the source
Rat [13] = settings: dosed: 4-methylimidazole, 10 mg/kg, iv, Male, Harlan Sprague Dawley; remark: listed apart in the source
Rat [14] = settings: dosed: 4-methylimidazole, 10 mg/kg, iv, Female, Harlan Sprague Dawley
Rat [15] = settings: 0.5 h; dosed: 4-methylimidazole; 10 mg/kg; iv; Male; Harlan Sprague Dawley
Rat [16] = tested on: Rat
Rat [17] = settings: dosed: 4-methylimidazole, 10 mg/kg, iv, Male, Harlan Sprague Dawley; remark: listed apart in the source
Rat [18] = settings: dosed: 4-methylimidazole, 10 mg/kg, iv, Male, Harlan Sprague Dawley; remark: listed apart in the source
Rat [19] = settings: dosed: 4-methylimidazole, 10 mg/kg, iv, Male, Harlan Sprague Dawley; remark: listed apart in the source
Rat [20] = settings: dosed: 4-methylimidazole, 10 mg/kg, iv, Male, Harlan Sprague Dawley; remark: listed apart in the source
Rat [21] = settings: dosed: 4-methylimidazole, 10 mg/kg, iv, Male, Harlan Sprague Dawley; remark: listed apart in the source
Rat [22] = settings: dosed: 4-methylimidazole, 10 mg/kg, iv, Male, Harlan Sprague Dawley; remark: listed apart in the source
Rat [23] = settings: 0.75 h; dosed: 4-methylimidazole; 10 mg/kg; iv; Male; Harlan Sprague Dawley; remark: listed apart in the source
Rat [24] = settings: dosed: 4-methylimidazole, 10 mg/kg, iv, Male, Harlan Sprague Dawley; remark: listed apart in the source
Rat [25] = settings: dosed: 4-methylimidazole, 10 mg/kg, iv, Male, Harlan Sprague Dawley; remark: listed apart in the source
Rat [26] = settings: dosed: 4-methylimidazole, 10 mg/kg, iv, Male, Harlan Sprague Dawley; remark: listed apart in the source
Rat [27] = settings: 0.5 h; dosed: 4-methylimidazole; 10 mg/kg; iv; Male; Harlan Sprague Dawley; remark: listed apart in the source
Rat [28] = settings: dosed: 4-methylimidazole, 10 mg/kg, iv, Male, Harlan Sprague Dawley; remark: listed apart in the source
Rat [29] = settings: dosed: 4-methylimidazole, 10 mg/kg, iv, Female, Harlan Sprague Dawley; remark: listed apart in the source
Rat [30] = settings: dosed: Oxazepam, 200 mg/kg, oral, Female, F344
Rat [31] = settings: 3.5 h; dosed: Oxazepam; 50 mg/kg; oral; Male; F344
Rat [32] = settings: dosed: Oxazepam, 200 mg/kg, oral, Male, F344
Rat [33] = settings: dosed: Oxazepam, 50 mg/kg, oral, Male, F344
Rat [34] = settings: dosed: Oxazepam, 50 mg/kg, oral, Male, F344; remark: listed apart in the source
Rat [35] = settings: dosed: Oxazepam, 400 mg/kg, oral, Male, F344
Rat [36] = settings: dosed: Oxazepam, 50 mg/kg, oral, Female, F344
Rat [37] = settings: dosed: Oxazepam, 200 mg/kg, oral, Male, F344; remark: listed apart in the source
Rat [38] = settings: dosed: Oxazepam, 200 mg/kg, oral, Male, F344; remark: listed apart in the source
Rat [39] = settings: 3.5 h; dosed: Oxazepam; 50 mg/kg; oral; Female; F344
Rat [40] = settings: dosed: Oxazepam, 50 mg/kg, oral, Female, F344; remark: listed apart in the source
Rat [41] = settings: dosed: Oxazepam, 200 mg/kg, oral, Male, F344; remark: listed apart in the source
Rat [42] = settings: dosed: Oxazepam, 200 mg/kg, oral, Female, F344; remark: listed apart in the source
Rat [43] = settings: dosed: Oxazepam, 200 mg/kg, oral, Male, F344; remark: listed apart in the source
Rat [44] = settings: dosed: Oxazepam, 400 mg/kg, oral, Male, F344; remark: listed apart in the source
Rat [45] = settings: dosed: Oxazepam, 200 mg/kg, oral, Male, F344; remark: listed apart in the source
Rat [46] = settings: dosed: Oxazepam, 50 mg/kg, oral, Female, F344; remark: listed apart in the source
Rat [47] = settings: 1 h; dosed: Oxazepam; 50 mg/kg; oral; Female; F344
Rat [48] = settings: dosed: Oxazepam, 200 mg/kg, oral, Male, F344; remark: listed apart in the source
Rat [49] = settings: dosed: Oxazepam, 400 mg/kg, oral, Female, F344
Rat [50] = settings: dosed: Oxazepam, 200 mg/kg, oral, Female, F344; remark: listed apart in the source
Rat [51] = settings: dosed: Oxazepam, 50 mg/kg, oral, Male, F344; remark: listed apart in the source
Rat [52] = settings: dosed: Oxazepam, 200 mg/kg, oral, Male, F344; remark: listed apart in the source
Rat [53] = settings: dosed: Oxazepam, 50 mg/kg, oral, Female, F344; remark: listed apart in the source
Rat [54] = settings: dosed: Oxazepam, 200 mg/kg, oral, Female, F344; remark: listed apart in the source
Rat [55] = settings: dosed: Oxazepam, 50 mg/kg, oral, Female, F344; remark: listed apart in the source
Rat [56] = settings: dosed: Oxazepam, 50 mg/kg, oral, Female, F344; remark: listed apart in the source
Rat [57] = settings: dosed: Oxazepam, 200 mg/kg, oral, Female, F344; remark: listed apart in the source
Rat [58] = settings: 2 h; dosed: Oxazepam; 50 mg/kg; oral; Male; F344
Rat [59] = settings: 3.5 h; dosed: Oxazepam; 50 mg/kg; oral; Male; F344; remark: listed apart in the source
Rat [60] = settings: dosed: Oxazepam, 50 mg/kg, oral, Male, F344; remark: listed apart in the source
Rat [61] = settings: dosed: Oxazepam, 50 mg/kg, oral, Male, F344; remark: listed apart in the source
Rat [62] = settings: dosed: Oxazepam, 200 mg/kg, oral, Female, F344; remark: listed apart in the source
Rat [63] = settings: dosed: Oxazepam, 200 mg/kg, oral, Female, F344; remark: listed apart in the source
Rat [64] = settings: dosed: Oxazepam, 400 mg/kg, oral, Female, F344; remark: listed apart in the source
Rat [65] = settings: dosed: Oxazepam, 200 mg/kg, oral, Female, F344; remark: listed apart in the source

Cc1cnc[nH]1 [4-methylimidazole]
Settings | concentration in plasma [ng/mL]
Rat [1], 0.5 h | 5620
Rat [1], 6 h | 162
Rat [2], 0.5 h | 5440
Rat [2], 8 h | 88.2
Rat [4], 2 h | 2740
Rat [4], 7 min | 8840
Rat [5], 2 h | 3520
Rat [5], 10 min | 6960
Rat [6], 4 h | 1490
Rat [6], 10 min | 7840
Rat [7], 1 h | 4070
Rat [7], 2 min | 10200
Rat [8], 0.5 h | 5280
Rat [8], 6 h | 108
Rat [9], 4 h | 647
Rat [9], 20 min | 6930
Rat [10], 1 h | 4110
Rat [10], 7 min | 7090
Rat [11], 0.75 h | 3040
Rat [11], 8 h | 656
Rat [12], 1 h | 4610
Rat [12], 2 min | 12200
Rat [13], 0.75 h | 5620
Rat [13], 8 h | 74.3
Rat [14], 1 h | 6380
Rat [14], 2 min | 10500
Rat [17], 4 h | 960
Rat [17], 20 min | 5890
Rat [18], 6 h | 148
Rat [18], 20 min | 6950
Rat [19], 2 h | 3340
Rat [19], 7 min | 8240
Rat [20], 0.75 h | 4780
Rat [20], 2 min | 11800
Rat [21], 6 h | 112
Rat [21], 20 min | 7340
Rat [22], 2 h | 2460
Rat [22], 10 min | 7010
Rat [24], 4 h | 611
Rat [24], 10 min | 8520
Rat [25], 4 h | 1720
Rat [25], 10 min | 7910
Rat [26], 6 h | 116
Rat [26], 20 min | 6840
Rat [28], 2 h | 2740
Rat [28], 7 min | 8150
Rat [29], 1 h | 5190
Rat [29], 2 min | 12000

Settings | concentration in plasma [ng/mL]
Rat [3] | 6160
Rat [15] | 5420
Rat [23] | 5440
Rat [27] | 5770

concentration in plasma [ng/mL], Rat [16], dosed: 4-methylimidazole, 10 mg/kg, iv, Harlan Sprague Dawley
Settings | Female | Male
0.5 h | – | 7300
0.75 h | – | 6210
1 h | 4810 | –
2 h | – | 2060
2 min | – | 9350
4 h | – | 690
6 h | – | 454
7 min | 8000 | 9000
8 h | – | 205
10 min | – | 8770
20 min | – | 6950

O=C1Nc2ccc(Cl)cc2C(c2ccccc2)=NC1O (centres undefined) [Oxazepam]
Settings | concentration in plasma [ng/mL]
Rat [30], 6 h | 1000
Rat [30], 20 min | 1200
Rat [32], 6 h | 2020
Rat [32], 20 min | 1470
Rat [33], 6 h | 580
Rat [33], 20 min | 400
Rat [34], 1 h | 1280
Rat [34], 10 h | 520
Rat [35], 1 h | 2440
Rat [35], 10 h | 3960
Rat [36], 2 h | 3640
Rat [36], 18 h | 270
Rat [37], 1 h | 1630
Rat [37], 10 h | 2030
Rat [38], 2 h | 2210
Rat [38], 18 h | 1850
Rat [40], 3.5 h | 710
Rat [40], 24 h | 450
Rat [41], 1 h | 2310
Rat [41], 10 h | 1250
Rat [42], 6 h | 4550
Rat [42], 20 min | 1250
Rat [43], 6 h | 1960
Rat [43], 20 min | 1020
Rat [44], 1 h | 3500
Rat [44], 10 h | 1790
Rat [45], 2 h | 2130
Rat [45], 18 h | 3140
Rat [46], 2 h | 1620
Rat [46], 18 h | 270
Rat [48], 3.5 h | 10500
Rat [48], 24 h | 1320
Rat [49], 1 h | 4120
Rat [49], 10 h | 5630
Rat [50], 1 h | 2880
Rat [50], 10 h | 3470
Rat [51], 2 h | 990
Rat [51], 18 h | 370
Rat [52], 3.5 h | 2630
Rat [52], 24 h | 520
Rat [53], 1 h | 1610
Rat [53], 10 h | 820
Rat [54], 2 h | 2840
Rat [54], 18 h | 760
Rat [55], 6 h | 1630
Rat [55], 20 min | 760
Rat [56], 6 h | 1560
Rat [56], 20 min | 880
Rat [57], 1 h | 2300
Rat [57], 10 h | 1720
Rat [60], 1 h | 950
Rat [60], 10 h | 390
Rat [61], 6 h | 510
Rat [61], 20 min | 290
Rat [62], 3.5 h | 4280
Rat [62], 24 h | 1460
Rat [63], 3.5 h | 2990
Rat [63], 24 h | 10000
Rat [64], 1 h | 3270
Rat [64], 10 h | 4280
Rat [65], 2 h | 3340
Rat [65], 18 h | 3360

Settings | concentration in plasma [ng/mL]
Rat [31] | 1260
Rat [39] | 2510
Rat [47] | 1290
Rat [58] | 990
Rat [59] | 1070

concentration in plasma [ng/mL], Rat [16], dosed: Oxazepam, oral, F344
Settings | 1 h | 2 h | 3.5 h | 6 h | 10 h | 18 h | 20 min | 24 h
50 mg/kg, Female | 2850 | 1900 | 1170 | 1230 | 1380 | 280 | 560 | –
50 mg/kg, Male | 1230 | 1000 | 910 | 680 | 330 | – | 450 | 590
200 mg/kg, Female | 3020 | 3870 | 2700 | 3910 | 5160 | 5030 | 1250 | 5000
200 mg/kg, Male | 2370 | – | 3150 | 1580 | 1890 | 730 | 600 | 2280
400 mg/kg, Female | 4100 | – | – | – | 4480 | – | – | –
400 mg/kg, Male | 3070 | – | – | – | 2910 | – | – | –
